Assay results as given in paper PMC11506171, “Quercetin as a Modulator of PTPN22 Phosphomonoesterase Activity: A Biochemical and Computational Evaluation” (Current Issues in Molecular Biology, 2024).

Legend:
Type in all cases: biochemical
[1] = target: T1, protein tyrosine phosphatase nonreceptor type 22 (PTPN22) (Homo sapiens, UniProt Q9Y2R2); test: pNPP phosphatase assay, single concentration screen at […]; conditions: read-out: % inhibition at 50 μM
T1 construct: catalytic domain, amino acids 1 to 303
T1 sequence (Q9Y2R2 1-303): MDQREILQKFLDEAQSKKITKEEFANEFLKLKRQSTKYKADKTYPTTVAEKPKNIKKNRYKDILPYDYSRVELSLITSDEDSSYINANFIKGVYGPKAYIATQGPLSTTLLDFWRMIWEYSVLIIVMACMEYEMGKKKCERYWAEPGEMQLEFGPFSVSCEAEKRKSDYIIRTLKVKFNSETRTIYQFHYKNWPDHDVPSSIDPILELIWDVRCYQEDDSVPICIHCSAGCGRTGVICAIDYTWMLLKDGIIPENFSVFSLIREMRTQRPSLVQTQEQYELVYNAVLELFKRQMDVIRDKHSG

[2] = target: T1, protein tyrosine phosphatase nonreceptor type 22 (PTPN22); test: pNPP phosphatase assay with recombinant enzyme, reference inhibitor
[3] = target: T1, protein tyrosine phosphatase nonreceptor type 22 (PTPN22); test: pNPP phosphatase assay with recombinant enzyme; Lineweaver-Burk and Dixon plots (Ki […])

| SMILES | inhibition at 50 µM [1] [%] | other results |
| --- | --- | --- |
| O=C1C=CC(=O)c2c(O)cccc21 [5HNQ] | 61 | – |
| C[C@H]1[C@H](C)CC[C@]2(C(=O)O)CC[C@]3(C)C(=CC[C@@H]4[C@@]5(C)CC[C@H](O)C(C)(C)[C@@H]5CC[C@]43C)[C@H]12 [ursolic acid] | – | IC50 [2]: 37.2 µM |
| O=C1C=C(O)C(=O)c2ccccc21 [2HNQ] | 62 | – |
| O=c1c(O)c(-c2ccc(O)c(O)c2)oc2cc(O)cc(O)c12 [quercetin] | – | IC50 [3]: 29.6 µM |
| CO[C@H]1C[C@H](O[C@@H]2/C(C)=C/C[C@@H]3C[C@@H](C[C@]4(CC[C@H](C)[C@@H](C5CCCCC5)O4)O3)OC(=O)[C@@H]3C=C(C)/C(=N/O)[C@H]4OC/C(=C\C=C\[C@@H]2C)[C@]43O)O[C@@H](C)[C@@H]1O [selamectin] | 54 | – |
| CO[C@H]1C[C@H](O[C@H]2[C@H](C)O[C@@H](O[C@@H]3/C(C)=C/C[C@@H]4C[C@@H](C[C@]5(C=C[C@H](C)[C@@H](C6CCCCC6)O5)O4)OC(=O)[C@@H]4C=C(C)[C@@H](O)[C@H]5OC/C(=C\C=C\[C@@H]3C)[C@]54O)C[C@@H]2OC)O[C@@H](C)[C@@H]1O [doramectin] | 50 | – |
